Assay results as given in the supplement of paper PMC10307832.

Columns and labels:
Test in all cases: relative viability (nuclei count vs DMSO), 5 days (fraction); higher = more cells survive
Adavosertib + Foretinib = compound: C=CCn1c(=O)c2cnc(Nc3ccc(N4CCN(C)CC4)cc3)nc2n1-c1cccc(C(C)(C)O)n1 [Adavosertib] + COc1cc2c(Oc3ccc(NC(=O)C4(C(=O)Nc5ccc(F)cc5)CC4)cc3F)ccnc2cc1OCCCN1CCOCC1 [Foretinib] (partner 0.25 µM)
Method in brief: (§1)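 Relative viability was taken as the ratio of nuclei in treated wells to nuclei in vehicle wells. Lung cancer cell lines in 1536-well plates received compounds by pin tool one day after seeding, either one drug alone or a fixed anchor-drug dose plus five library-drug doses (not always all listed) in √10 steps. Nuclei were counted on 4× images after 5 days of treatment, and values are medians of duplicate plates.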

Adavosertib + Lapatinib = compound: C=CCn1c(=O)c2cnc(Nc3ccc(N4CCN(C)CC4)cc3)nc2n1-c1cccc(C(C)(C)O)n1 [Adavosertib] + CS(=O)(=O)CCNCc1ccc(-c2ccc3ncnc(Nc4ccc(OCc5cccc(F)c5)c(Cl)c4)c3c2)o1 [Lapatinib] (partner 2 µM)
Method in brief: as §1

Nelarabine + OSI-027 = compound: COc1nc(N)nc2c1ncn2[C@@H]1O[C@H](CO)[C@@H](O)[C@@H]1O [Nelarabine] + COc1cccc2cc(-c3nc([C@H]4CC[C@H](C(=O)O)CC4)n4ncnc(N)c34)[nH]c12 [OSI-027] (partner 0.5 µM)
Method in brief: as §1

Nelarabine + Olaparib = compound: COc1nc(N)nc2c1ncn2[C@@H]1O[C@H](CO)[C@@H](O)[C@@H]1O [Nelarabine] + O=C(c1cc(Cc2n[nH]c(=O)c3ccccc23)ccc1F)N1CCN(C(=O)C2CC2)CC1 [Olaparib] (partner 8 µM)
Method in brief: as §1

Row | Cell Line | relative viability (Adavosertib + Foretinib; first compound 0.01 µM) | relative viability (Adavosertib + Foretinib; first compound 0.03162 µM) | relative viability (Adavosertib + Foretinib; first compound 0.1 µM) | relative viability (Adavosertib + Foretinib; first compound 0.3162 µM) | relative viability (Adavosertib + Lapatinib; first compound 0.01 µM) | relative viability (Adavosertib + Lapatinib; first compound 0.03162 µM) | relative viability (Adavosertib + Lapatinib; first compound 0.1 µM) | relative viability (Adavosertib + Lapatinib; first compound 0.3162 µM) | relative viability (Nelarabine + OSI-027; first compound 0.01 µM) | relative viability (Nelarabine + OSI-027; first compound 0.03162 µM) | relative viability (Nelarabine + OSI-027; first compound 0.1 µM) | relative viability (Nelarabine + OSI-027; first compound 0.3162 µM) | relative viability (Nelarabine + OSI-027; first compound 1 µM) | relative viability (Nelarabine + Olaparib; first compound 0.01 µM) | relative viability (Nelarabine + Olaparib; first compound 0.03162 µM) | relative viability (Nelarabine + Olaparib; first compound 0.1 µM) | relative viability (Nelarabine + Olaparib; first compound 0.3162 µM) | relative viability (Nelarabine + Olaparib; first compound 1 µM)
1 | NCI-H2347 | 0.829 | 0.926 | 0.697 | 0.989 | 0.889 | 0.912 | 1.13 | 1.03 | 0.505 | 0.431 | 0.409 | 0.389 | 0.369 | 0.658 | 0.417 | 0.527 | 0.574 | 0.52
2 | NCI-H3122 | 0.982 | 0.931 | 0.956 | 0.996 | 1.01 | 0.924 | 1.07 | 1.07 | 1.34 | 1.01 | – | 1.11 | 1.03 | 0.668 | 0.607 | – | 0.745 | 0.661
3 | HCC-15 | 1.04 | 0.936 | 1.2 | 1.25 | 0.902 | 0.87 | 0.934 | 0.955 | 0.817 | 0.559 | 0.675 | 0.703 | 0.778 | 0.813 | 0.691 | 0.931 | 0.667 | 0.846
4 | HCC-78 | 0.54 | 0.628 | 0.587 | 0.628 | 0.509 | 0.972 | 0.782 | 0.868 | 0.306 | 0.35 | – | 0.385 | 0.372 | 1.01 | 0.857 | – | 0.914 | 0.87
5 | A549 | 1.04 | 0.984 | 1.24 | 0.838 | 0.908 | 1.01 | 1.06 | 0.743 | – | – | – | – | – | 0.379 | 0.363 | 0.401 | 0.452 | 0.377
6 | NCI-H1703 | 0.399 | 0.43 | 0.335 | 0.203 | 1.19 | 1.1 | 0.93 | 0.257 | – | – | – | – | – | 0.547 | 0.293 | 0.295 | 0.557 | 0.524
7 | EBC-1 | 0.111 | 0.101 | 0.115 | 0.0875 | 0.198 | 0.206 | 0.25 | 0.21 | – | – | – | – | – | 0.89 | 0.911 | 0.707 | 0.676 | 0.737
8 | ChaGo-K-1 | 0.856 | 0.951 | 0.941 | 1.02 | – | – | – | – | 0.676 | 0.444 | 0.663 | 0.758 | 0.589 | 0.324 | 0.404 | 0.452 | 0.433 | 0.428
9 | NCI-H1648 | – | – | – | – | – | – | – | – | 0.237 | 0.282 | 0.264 | 0.256 | 0.281 | – | 0.927 | – | 0.889 | 0.714
10 | NCI-H522 | – | – | – | – | – | – | – | – | 0.758 | 0.76 | 0.713 | 0.722 | 0.687 | 0.619 | 0.738 | 0.651 | 0.592 | 0.639
11 | NCI-H1299 | 1.08 | 1.11 | 1.1 | 0.437 | 0.954 | 0.968 | 0.977 | 0.431 | – | – | – | – | – | 1 | 0.999 | 0.989 | 1.02 | 1.03
12 | HCC-44 | – | – | – | – | 0.976 | 1.04 | 1.08 | 1.14 | 0.568 | 0.484 | 0.607 | 0.518 | 0.52 | 1.07 | 0.972 | 0.948 | 0.975 | 0.986
13 | SW 900 | – | 0.727 | 0.853 | 0.907 | – | – | – | – | 0.569 | 0.551 | 0.565 | 0.452 | 0.655 | 0.843 | 0.752 | 0.96 | 0.949 | 0.797
14 | NCI-H1563 | 0.882 | 0.949 | 1.05 | 0.931 | 1.02 | 1.02 | 0.969 | 0.932 | 0.847 | 0.722 | 0.785 | 0.739 | 0.863 | – | – | – | – | –
15 | NCI-H2342 | 1.14 | 1.18 | 1.19 | 1.04 | – | – | – | – | 0.734 | 0.533 | 0.564 | 0.75 | 0.626 | 0.442 | 0.432 | 0.443 | 0.395 | 0.442
16 | LCLC-103H | 0.922 | 0.794 | 0.871 | 0.517 | – | – | – | – | 0.499 | 0.322 | 0.459 | 0.464 | 0.486 | 0.951 | 0.754 | 0.838 | 0.762 | 0.815
17 | IA-LM | 0.945 | 1.18 | 1.43 | 1.37 | 0.996 | – | 1.03 | 0.901 | – | – | – | – | – | 0.932 | 0.811 | 0.877 | 0.825 | 0.789
18 | NCI-H441 | 1.04 | 0.964 | 1.09 | 0.916 | – | – | – | – | 0.535 | 0.497 | 0.592 | 0.782 | 0.647 | 0.5 | 0.518 | 0.561 | 0.677 | 0.697
19 | NCI-H1623 | 0.863 | 0.863 | 0.854 | 0.933 | – | – | – | – | 0.436 | 0.374 | 0.392 | 0.379 | 0.391 | – | – | – | – | –
20 | Calu-6 | 0.905 | 0.956 | 0.91 | 0.311 | 1.07 | 1 | 1.04 | 0.356 | – | – | – | – | – | 0.67 | 0.65 | 0.698 | 0.575 | 0.594
21 | NCI-H1792 | – | – | – | – | 0.824 | 0.931 | 0.919 | 0.937 | – | 0.773 | 0.75 | 0.904 | 1.13 | 0.52 | 0.42 | 0.581 | 0.566 | 0.436
